Here are results for 14 molecules from patent US12448399B2, “Cereblon-based KRAS degrading PROTACs and uses related thereto” (Arvinas Operations, Inc., priority 2023, dated 2025).

Each structure is given as a SMILES string.

The experiment has as its target T1, KRas-G12D (Homo sapiens, UniProt P01116, G12D).
T1 construct: insert the HiBiT tag onto the N-terminus of one or more of the endogenous KRas alleles; host or cells: AsPC-1 HiBiT-KRasG12D knock-in clone (one tagged allele, two untagged KRasG12D alleles)
The experiment in a line: HiBiT Degradation Assay (G12D), AsPC-1 HiBiT-KRasG12D cells, 24 hr. To be noted: for Dmax: ASPC1, AsPC-1 cells, maximum degradation observed; for DC50: AsPC-1 cells. In kind it is cell-based. The procedure:
AsPC-1 (CRL-1682) cells were purchased from ATCC and are homozygous for the G12D mutation in KRas. AsPC-1 cells were cultured in GIBCO RPMI-1640 (ThermoFisher Scientific, catalog #61870-036, with Glutamax, no HEPES, no Na Pyruvate) supplemented with 10% FBS (ThermoFisher Scientific, catalog #2060357) and 1× Penicillin-Streptomycin (ThermoFisher Scientific, catalog #15140122, 10000 U/ml, 100×). For degradation assays, 384 well plates were used. Alamar blue was purchased from ThermoFisher Scientific (A50101) and used according to manufacturer instructions. The Nano-Glo® HiBiT Lytic Detection System and Nano-Glo® HiBiT Blotting System were purchased from Promega (#N3050 and #N2410) and used according to manufacturer instructions.
To create the AsPC-1 HiBiT-KRasG12D cell line, CRISPR-Cas9 was used to insert the HiBiT tag onto the N-terminus of one or more of the endogenous KRas alleles. See Schwinn, M. K. et al. (2018) CRISPR-mediated tagging of endogenous proteins with a luminescent peptide, ACS Chem. Biol. 13(2), 467-474. After knock-in of the tag, individual clones were isolated by single cell dilution and screened for HiBiT insertion by PCR. A clone was identified that contained the desired HiBiT-KRasG12D sequence at one allele while the remaining two KRasG12D alleles were untagged. This clone was used in further studies.
AsPC-1 HiBiT-KRasG12D cells were plated at 9000 or 15,000 cells/well in a 384 well plate (Corning #3770). Compounds of the present disclosure and positive controls were diluted in the appropriate cell media and applied to the plated cells resulting in a final concentration titration of 10 μM to […] in 0.5% DMSO. Gambogic acid was used as a positive control for cytotoxicity and titrated from 10 μM to 78 nM. All assays were performed in triplicate. Cells were treated with compounds for 24 hr at 37° C. in an incubator containing 5% CO2. Following treatment, alamar blue was used to determine if any compounds led to a loss in cell viability after 24 hr. The 10× alamar blue reagent was added to a final concentration of 1× as recommended by the manufacturer and cells were returned to the incubator for 4 hr. Plates were then allowed to equilibrate to RT and fluorescence was measured using a Perkin-Elmer EnVision. After completion of the fluorescence read, the liquid from each well was removed and the cells were washed with PBS. The Nano-Glo® HiBiT detection reagent was prepared according to the manufacturer's instructions and added to each well after the PBS wash was removed. Following incubation at room temperature for 45 min, the luminescence was read using the ultra-sensitive luminescence aperture on the Envision instrument.
Fluorescence values from the alamar blue treatment were normalized to the DMSO-only control for each compound titration. HiBiT luminescence was normalized to the DMSO-only control and the fractional HiBiT signal was plotted versus the log of the PROTAC concentration and fit to a 4-parameter dose-response model to obtain the concentration of the compound that leads to half maximal degradation (DC50) as well as the maximum degradation observed (Dmax, conventionally expressed as a percentage of control).
(In general: HiBiT is a short tag that completes a luciferase, so light tracks the accessible tagged protein.)

T1 sequence (P01116 1-188 isoform P01116-2 G12D): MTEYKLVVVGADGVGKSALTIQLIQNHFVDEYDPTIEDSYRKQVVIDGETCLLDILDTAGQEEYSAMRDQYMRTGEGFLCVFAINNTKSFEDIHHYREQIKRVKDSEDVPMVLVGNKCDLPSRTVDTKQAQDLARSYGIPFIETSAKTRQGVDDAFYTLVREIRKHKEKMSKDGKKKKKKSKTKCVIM

`CCc1c(F)ccc2cc(O)cc(-c3ncc4c(N5CC6CCC(C5)N6)nc(OC[C@@H]5C[C@@H](OC6CCN(CC7CCN(c8ccc9c(c8)n(C(C)C)c(=O)n9C8CCC(=O)NC8=O)CC7)CC6)CN5C)nc4c3F)c12` (stereo partly drawn) [Compound 209, 3-(5-{4-[(4-{[(3R,5S)-5-{[(4-{3,8-diazabicyclo[3.2.1]octan-3-yl}-7-(8-ethyl-7-fluoro-3-hydroxynaphthalen-1-yl)-8-fluoropyrido[4,3-d]pyrimidin-2-yl)oxy]methyl}-1-methylpyrrolidin-3-yl]oxy}piperidin-1-yl)methyl]piperidin-1-yl}-2-oxo-3-(propan-2-yl)-2,3-dihydro-1H-1,3-benzodiazol-1-yl)piperidine-2,6-dione] gave a Dmax of over 70% and a DC50 of under 5.1 µM.

Molecule `CCc1cccc2cc(O)cc(-c3ncc4c(N5CC6CCC(C5)N6)nc(OC[C@]56CCCN5[C@@H](COC(=O)N5CCN(c7ccc8c(c7)C(=O)N(C7CCC(=O)NC7=O)C8=O)CC5)CC6)nc4c3F)c12` (stereo partly drawn) [Compound 63, [(3R,8R)-8-[[4-(3,8-diazabicyclo[3.2.1]octan-3-yl)-7-(8-ethyl-3-hydroxy-1-naphthyl)-8-fluoro-pyrido[4,3-d]pyrimidin-2-yl]oxymethyl]-1,2,3,5,6,7-hexahydropyrrolizin-3-yl]methyl4-[2-(2,6-dioxo-3-piperidyl)-1,3-dioxo-isoindolin-5-yl]piperazine-1-carboxylate] gave a DC50 of 0.25 to 1 µM.

The molecule `C#Cc1c(F)ccc2cc(O)cc(-c3ncc4c(N5CC6CCC(C5)N6)nc(OCCN5CCC(C)(CC6CCN(CC7CCN(c8ccc9c(c8)n(C)c(=O)n9C8CCC(=O)NC8=O)CC7)CC6)CC5)nc4c3F)c12` (stereo not drawn) [Compound 161, 3-{5-[4-({4-[(1-{2-[(4-{3,8-diazabicyclo[3.2.1]octan-3-yl}-7-(8-ethynyl-7-fluoro-3-hydroxynaphthalen-1-yl)-8-fluoropyrido[4,3-d]pyrimidin-2-yl)oxy]ethyl}-4-methylpiperidin-4-yl)methyl]piperidin-1-yl}methyl)piperidin-1-yl]-3-methyl-2-oxo-2,3-dihydro-1H-1,3-benzodiazol-1-yl}piperidine-2,6-dione] had a Dmax of over 70% and a DC50 of under 5.1 µM.

Take `CCc1cccc2c(F)c(O)cc(-c3ncc4c(N5CC6CCC(C5)N6)nc(OCCN5CCC(CC6CCN(c7cccc8c7CN(C7CCC(=O)NC7=O)C8=O)CC6)CC5)nc4c3F)c12` (stereo not drawn) [Compound 158]: the Dmax is at most 25% and the DC50 is over 1 µM.

`C#Cc1c(F)ccc2cc(O)cc(-c3ncc4c(N5CC6CCC(C5)N6)nc(OC[C@@H]5C[C@@H](OC6CCN(CC7CCN(c8ccc9c(c8F)n(C(C)C)c(=O)n9C8CCC(=O)NC8=O)CC7)CC6)CN5C)nc4c3F)c12` (stereo partly drawn) [Compound 224, 3-(5-{4-[(4-{[(3R,5S)-5-{[(4-{3,8-diazabicyclo[3.2.1]octan-3-yl}-7-(8-ethynyl-7-fluoro-3-hydroxynaphthalen-1-yl)-8-fluoropyrido[4,3-d]pyrimidin-2-yl)oxy]methyl}-1-methylpyrrolidin-3-yl]oxy}piperidin-1-yl)methyl]piperidin-1-yl}-4-fluoro-2-oxo-3-(propan-2-yl)-2,3-dihydro-1H-1,3-benzodiazol-1-yl)piperidine-2,6-dione] had a Dmax of over 70% and a DC50 of under 5.1 µM.

As for `C#Cc1c(F)ccc2cc(O)cc(-c3ncc4c(N5CC6CCC(C5)N6)nc(OCCN5CCC6(CC5)CCN(CC5CCN(c7ccc8c(c7)n(C(C)C)c(=O)n8C7CCC(=O)NC7=O)CC5)CC6)nc4c3F)c12` (stereo not drawn) [Compound 202, 3-(5-{4-[(9-{2-[(4-{3,8-diazabicyclo[3.2.1]octan-3-yl}-7-(8-ethynyl-7-fluoro-3-hydroxynaphthalen-1-yl)-8-fluoropyrido[4,3-d]pyrimidin-2-yl)oxy]ethyl}-3,9-diazaspiro[5.5]undecan-3-yl)methyl]piperidin-1-yl}-2-oxo-3-(propan-2-yl)-2,3-dihydro-1H-1,3-benzodiazol-1-yl)piperidine-2,6-dione], the Dmax was over 70% and the DC50 is under 5.1 µM.

`C#Cc1c(F)ccc2cc(O)cc(-c3ccc4c(N5CC6CCC(C5)N6)nc(OCCN5CCC(CC6CCN(CC7CCN(c8ccc9c(c8F)n(C)c(=O)n9C8CCC(=O)NC8=O)CC7)CC6)CC5)nc4c3F)c12` (stereo not drawn) [Compound 232] registered a Dmax of over 70% and a DC50 of under 5.1 µM.

The molecule `CCc1cccc2cc(O)cc(-c3ncc4c(N5CC6CCC(C5)N6)nc(OCCN5CCN(CC6CCN(c7ccc(OC)c(C(=O)NC8CCC(=O)NC8=O)c7)CC6)CC5)nc4c3F)c12` (stereo not drawn) [Compound 15] returned a half-maximal degradation concentration (DC50) of 0.25 to 1 µM.

Consider `CCc1cccc2cc(O)cc(-c3ncc4c(N5CC6CCC(C5)N6)nc(OCCN5CCC(O[C@H]6C[C@H](OC7CCN(c8cccc9c8CN(C8CCC(=O)NC8=O)C9=O)CC7)C6)CC5)nc4c3F)c12` (stereo partly drawn) [Compound 24], for which the DC50 lay in the range of 0.1 to 5.25 µM.

`CCc1cccc2cc(O)cc(-c3ncc4c(N5CC6CCC(C5)N6)nc(OC[C@@]56CCCN5[C@H](COC(=O)N5CCN(c7ccc8c(c7)CN(C7CCC(=O)NC7=O)C8=O)CC5)CC6)nc4c3F)c12` (stereo partly drawn) [Compound 58, [(3S,8S)-8-[[4-(3,8-diazabicyclo[3.2.1]octan-3-yl)-7-(8-ethyl-3-hydroxy-1-naphthyl)-8-fluoro-pyrido[4,3-d]pyrimidin-2-yl]oxymethyl]-1,2,3,5,6,7-hexahydropyrrolizin-3-yl]methyl 4-[2-(2,6-dioxo-3-piperidyl)-1-oxo-isoindolin-5-yl]piperazine-1-carboxylate] registered a DC50 of under 5.1 µM.

As for `C#Cc1c(F)ccc2cc(O)cc(-c3ncc4c(N5CC6CCC(C5)N6)nc(OC[C@H](C)N5CCC(CC6CCN(CC7CCN(c8ccc9c(c8F)CN(C8CCC(=O)NC8=O)C9=O)CC7)CC6)CC5)nc4c3F)c12` (stereo partly drawn) [Compound 194, 3-[5-[4-[[4-[[1-[(1S)-2-[4-(3,8-diazabicyclo[3.2.1]octan-3-yl)-7-(8-ethynyl-7-fluoro-3-hydroxy-1-naphthyl)-8-fluoro-pyrido[4,3-d]pyrimidin-2-yl]oxy-1-methyl-ethyl]-4-piperidyl]methyl]-1-piperidyl]methyl]-1-piperidyl]-4-fluoro-1-oxo-isoindolin-2-yl]piperidine-2,6-dione], the Dmax is over 70% and the DC50 is under 5.1 µM.

Take `C#Cc1c(F)ccc2cc(O)cc(-c3ncc4c(N5CC6CCC(C5)N6)nc(N(C)CCN5CCC(CC6CCN(CC7CCN(c8ccc9c(c8F)CN(C8CCC(=O)NC8=O)C9=O)CC7)CC6)CC5)nc4c3F)c12` (stereo not drawn) [Compound 105]: the Dmax was at most 25% and the DC50 is under 5.1 µM.

In turn, `C#Cc1c(F)ccc2cc(O)cc(-c3ncc4c(N5CC6CCC(C5)N6)nc(OCCN5CCC(CN6CCC(CC7CCN(c8cccc9c8CN(C8CCC(=O)NC8=O)C9=O)CC7)CC6)CC5)nc4c3F)c12` (stereo not drawn) [Compound 126, 3-{4-[4-({1-[(1-{2-[(4-{3,8-diazabicyclo[3.2.1]octan-3-yl}-7-(8-ethynyl-7-fluoro-3-hydroxynaphthalen-1-yl)-8-fluoropyrido[4,3-d]pyrimidin-2-yl)oxy]ethyl}piperidin-4-yl)methyl]piperidin-4-yl}methyl)piperidin-1-yl]-1-oxo-2,3-dihydro-1H-isoindol-2-yl}piperidine-2,6-dione] had a Dmax of over 70% and a DC50 of under 5.1 µM.

Molecule `C#Cc1c(F)ccc2cc(O)cc(-c3ncc4c(N5CC6CCC(C5)N6)nc(OC[C@@H]5C[C@@H](OC6CCN(CC7CCN(c8ccc9c(c8)n(C(C)C)c(=O)n9C8CCC(=O)NC8=O)CC7)CC6)CN5C)nc4c3F)c12` (stereo partly drawn) [Compound 95, 3-(5-{4-[(4-{[(3R,5S)-5-{[(4-{3,8-diazabicyclo[3.2.1]octan-3-yl}-7-(8-ethynyl-7-fluoro-3-hydroxynaphthalen-1-yl)-8-fluoropyrido[4,3-d]pyrimidin-2-yl)oxy]methyl}-1-methylpyrrolidin-3-yl]oxy}piperidin-1-yl)methyl]piperidin-1-yl}-2-oxo-3-(propan-2-yl)-2,3-dihydro-1H-1,3-benzodiazol-1-yl)piperidine-2,6-dione] displayed a Dmax of over 70% and a DC50 of under 5.1 µM.

What is called Dmax is the greatest extent of degradation seen. A higher Dmax goes with deep degradation. The term DC50 denotes the midpoint of the concentration-degradation curve. A lower DC50 goes with degradation at low concentration.
